Laboratory results reported in patent US11779597B2, “Method of treating Parkinson's and other neurodegenerative diseases” (Vector Vitale IP LLC, priority 2019, dated 2023).

Key:
[1] = tested on: LPS rat models of Parkinson's disease; assay: Elevated plus maze; format: in vivo
Description: Method. The elevated plus maze is a widely used behavioral assay for rodents that makes it possible to assess sedative or anxiogenic effects of agents and to define mechanisms underlying anxiety-related behavior, as well as to evaluate the motor activity of rats and levels of their exploratory activity that may correlate with the data collected in the open field test. Campos A C, et al., Braz J Psychiatry. 2013; 35 Suppl 2:S101-11. doi: 10.1590/1516-4446-2013-1139; Braun A A, et al., Neurobiol Learn Mem. 2012; 97(4):402-8. doi: 10.1016/j.nlm.2012.03.004). Behavior was assessed according to the following main parameters: the total distance travelled, the number of entries into each arm, the time spent in each arm, the total number of entries and percent of entries. […] Throughout the experiment, animals had free access to food and water. Before starting measurements, animals were given time to adapt to new an environment to reduce stress.
The entire apparatus was elevated 50 cm above the floor. The central part of the junction was a 10 cm square center region where an animal was started facing an open arm. The apparatus was illuminated by two LED bulbs, 60 watts each, hanging at a height of 2 m. An IP camera was used to record the location of rats and scoring was completed later using the MATLAB-based software. The statistical analysis was performed using GraphPad Prism. Significance was set at <0.005. The data collected from the open field were analyzed using One-way ANOVA (Tukey test or Dunnett test) and Unpaired t-test or Mann-Whitney.
Data analysis and interpretation. The test is based on the natural aversion of rats for open areas and their preference for closed areas of the apparatus. The levels of anxiety in animals are assessed as the total time spent in the open and closed arms. Animals that spend more time in the open arms have lower levels of anxiety compared to animals that prefer closed arms. In addition, like in an open field test, a novel environment in which an animal finds itself evokes conflict between fear and a desire to explore this environment. Therefore, the data collected from these two tests may correlate in the distance travelled and the time spent in the outer and inner perimeter. It is considered normal if during a 5-minute test, animals spend most of their time in the closed arms but also make a few entries to the open arms to explore. Accordingly, an increase in open arm entries is interpreted as a decreased anxiety in the animal. FIG. 51A and FIG. 51B show an example of analysis of a rat trajectory in the experimental arena.
(§1) On the 1st day of the experiment, rats were either operated to model hemi-parkinsonism or sham operated. From the 9th to the 18th day of the experiment, the animals were injected either deuterium-depleted water or the test substance, according to their allocation into groups, for 10 days. On the 8th day of the experiment (before initiation of treatment—apomorphine test I) and on the 21st day of the experiment (after the end of administering the test substance —apomorphine test II) the animals underwent an apomorphine test to analyze the development of hemi-parkinsonism which correlates with the number of destroyed dopaminergic neurons. In addition, a follow-up analysis of fecal water content was carried out, i.e., before the start of treatment on the 8th day after the operation, as well as on the 21st (after the end of treatment) and the 28th day (before autopsy). On the 24th day of the experiment, behavioral tests were carried out in all groups. All animals were weighed before autopsy.

microglia = assay: Functional and phenotypic properties of microglia in LPS rat models; format: in vivo; conditions: LPS animal models of PD
Description: as §1, with “autopsy. During autopsy, ⅔ of animals from each group were sacrificed by cervical dislocation and brain and blood samples were collected for further biochemical and immunological tests. ⅓ of the animals were used for further immunohistochemical studies of the brain; for this purpose, under anesthesia, a procedure of fast, controlled and uniform fixation of the whole body of the animal was performed using 4% paraformaldehyde perfused through the heart of the rat to obtain the best preservation of the brain architecture for immunohistochemistry. Gage G J, et al., J Vis Exp. 2012 Jul. 30; (65).” for “autopsy.”
To assess the anti-inflammatory and immunomodulating effects of the test substance, microglia and peritoneal macrophages were isolated. Phenotypic and functional features of peripheral blood phagocytes were evaluated without their fractioning (using whole blood). […]
Phagocytic activity of microglia, peritoneal macrophages and peripheral blood phagocytes was analyzed on a flow cytometer using FITC-labeled S. aureus Wood 46 cells as an object of phagocytosis. […]
Oxidative metabolism of phagocytes of various localization was analyzed by flow cytometry using the cell-permeant 2′7′-dichlorodihydrofluorescein-diacetate (DHP) (carboxy-H2DCFDA, Invitrogen, USA) which is converted by intracellular esterases to the nonfluorescent membrane-impermeable carboxy-H2DCF form.
The phenotypic profile of phagocytes of various localization was characterized by the expression of markers of functional maturity and metabolic polarization (CD206, CD80 and CD86), which was determined by flow cytometry and the use of monoclonal antibodies of appropriate specificity marked with fluorescent dyes (Abcam, Becton Dickinson).

## ^64Zn-enriched zinc aspartate [^64Zne-asp]
[1]; LPS + ^64Zn-asp, Gr. V
  Number of entries into closed arms: 6.1 ± 8.279
  Number of entries into open arms: 6.1 ± 8.279
  Time spent in closed arms: 243.3 ± 54.2 s
  Time spent in open arms: 17.55 ± 24.48 s
  Total distance travelled, cm: 396.8 ± 107.7 cm
  Total number of entries: 13 ± 16.66
[1]; group V (LPS+^64Zn-asp) versus group IV (LPS)
  behavioral parameters in the elevated plus maze (in words): had not produced any effects
[1]; group V versus group IV (LPS)
  increase of number of entries: 1.3 times
  increase of total distance travelled: 1.2 times
microglia
  expression of CD86 by microglia: significant increase
  expression of CD206 by microglia: increased expression
  oxidative metabolism of microglia: slightly but statistically significantly increased
  phagocytic activity of microglia: sharp increase
